Converted amounts (≈) assume the structure as drawn. Where two headings read alike, the source gives them in different places. Where a SMILES comes first, the peptide text is derived from it. [ ]: non-standard residue; d: D form. d(hArg) = N=C(N)NCCCC[C@@H](N)C(=O)O
Experiments:
[1] = test system: MRSA SAP400, a USA400 strain; assay: microbe, parasite or virus in culture; conditions: Staphylococcus aureus, read-out: MIC, MRSA USA400
Experimental: (§1) Subcultures, prepared by inoculating 25 mL of fresh tryptic soy broth (TSB) with 200 μL of an overnight culture, were grown to log phase (OD600 = 0.3–0.6), after which cell counts were determined by measuring the OD600 (1.0 = 5 × 10^8 CFU/mL for E. coli, 4 × 10^8 CFU/mL for K. pneumoniae, 4 × 10^8 CFU/mL for P. aeruginosa, 1.5 × 10^8 CFU/mL for S. aureus). Bacterial cells were diluted to appropriate concentrations in TSB. We used the following clinical bacterial isolates of Klebsiella pneumoniae in this study: Strains KP6, KP46, NDM-1, KP396, and KP398 have been previously described.[43] ST58 strains C2, C3, and I2 are also described.[41] […] MRSA, […] S. aureus strain, is SAP400, a USA400 strain of community-acquired MRSA. […] The second independent set of K. pneumoniae isolates are previously described.[20],[21]
(§2) The antibiotics were serially diluted by a factor of 2:3 horizontally across 96-well plates from Corning, 25 μL per well. One column was reserved for controls. For the assays performed in the presence of RBC, type O+ human RBCs at 0 or 2.5 × 10^9 cells/mL were added in 50 μL aliquots to all wells. Following a 30-min incubation, 50 μL of TSB, inoculated with 5 × 10^5 CFU/mL, was added to all wells, and plates were incubated overnight at 37 °C. Following overnight incubation at 37 °C, the OD600 was measured (values of less than 0.1 were considered sterilized). To assess bacterial growth in the assays with RBC, the OD600 was measured after a second-day inoculation with 10 μL of solution from the original plate added to 100 μL of sterile TSB followed by overnight incubation.
(§3) Experiments were repeated four to eight times independently, with pairs of replicate measurements on each 96-well plate. After overnight growth, optical densities were measured at 660 nm and the sterilized wells were identified by having O.D. < 0.08. Nonsterilized wells were nearly opaque with OD > 0.6. For each measurement, we recorded the largest dilution that sterilized the bacteria. Statistics are done on dilution numbers, rather than calculated concentrations, because only the former have normal distributions.

[2] = test system: Pseudomonas aeruginosa clinical isolates; assay: microbe, parasite or virus in culture; conditions: Pseudomonas aeruginosa
Experimental: as §1, §2, §3

[3] = test system: 14 clinical isolates of resistant bacterial strains; assay: Broth dilution, summary over the 14 clinical isolates of the first set; type: cell-based; conditions: statement for all 14 clinical isolates of the first set; read-out: MIC, all isolates (completely resistant)
Experimental: In Figure 4B, we plot the fraction of isolates sterilized as functions of antibiotic concentration.
as §1, §2

[4] = test system: Acinetobacter baumannii (PDR) Tulane isolate; assay: microbe, parasite or virus in culture; conditions: read-out: MIC, AB (PDR)Tulane
[5] = test system: K. pneumoniae clinical isolates; assay: microbe, parasite or virus in culture; conditions: Klebsiella pneumoniae
Experimental: as §1
The antibiotics were serially diluted by a factor of 2:3 horizontally across 96-well plates from Corning, 25 μL per well. One column was reserved for controls. For the assays performed in the presence of RBC, type O+ human RBCs at 0 or 2.5 × 10^9 cells/mL were added in 50 μL aliquots to all wells. […] To assess bacterial growth in the assays with RBC, the OD600 was measured after a second-day inoculation with 10 μL of solution from the original plate added to 100 μL of sterile TSB followed by overnight incubation.
as §3

[6] = test system: WI-38 human fibroblast cells; assay: in vitro; type: cell-based
Experimental: The day before cytotoxicity experiments, the 10,000 cells/well were plated in a 96-well tissue-culture plate. […] To perform the cytotoxicity assay, media was removed from the wells and replaced with peptide solutions. […] The plate was read for SYTOX fluorescence every 5 min for an hour with an excitation wavelength of 504 nm and an emission wavelength of 523 nm. Percent cytotoxicity was calculated at 60 min using the 100 and 0% lysis controls. At least three independent experiments were averaged.

human RBCs = type: cell-based
Experimental: Human O+ erythrocytes were obtained from Interstate Blood Bank, Inc. Red blood cells were subjected to four or more cycles of centrifugation at 1000g with resuspension in fresh PBS. Following the final wash step, the supernatant was clear and colorless. RBC concentration was determined using a standard hemocytometer.
Peptide was serially diluted in PBS starting at a concentration of 100 μM. The final volume of peptide in each well was 50 μL. To each well, 50 μL of RBCs in PBS at 2 × 10^8 cells/mL was added. As a positive lysis control, 1% Triton was used. The mixtures were incubated at 37 °C for 1 h, after which they were centrifuged at 1000g for 5 min. After centrifugation, 10 μL of supernatant was transferred to 90 μL of DI H2O in a fresh 96-well plate. The absorbance of released hemoglobin at 410 nm was recorded, and the fractional hemolysis was calculated based on the 100 and 0% lysis controls. At least three independent experiments were performed. Results shown are averages.

[7] = ATCC33495, read-out: MIC, KP ATCC 33495

SMILES | MIC [1] [µM] | MIC ([2]; read-out: MIC, PA(mucoid)) [µM] | MIC ([2]; read-out: MIC, PA(non-mucoid)) [µM] | MIC [4] [µM] | MIC [5, 7] [µM] | MIC ([5]; read-out: MIC, KP 6) [µM] | MIC ([5]; read-out: MIC, KP 46) [µM] | MIC ([5]; read-out: MIC, KP 398) [µM] | MIC ([5]; read-out: MIC, KP 2146NDM-1) [µM] | MIC ([5]; read-out: MIC, KP (CRE)) [µM] | MIC ([5]; read-out: MIC, KP ST258 C2) [µM] | MIC ([5]; read-out: MIC, KP ST258 C3) [µM] | MIC ([5]; read-out: MIC, KP ST258 I2) [µM] | MIC ([5]; read-out: MIC, KP ST396) [µM] | EC50 [6] [µM] | Hemolysis at 100 μM (fractional hemolysis) (human RBCs) | other results
CC1(C)S[C@@H]2[C@H](NC(=O)[C@H](N)c3ccccc3)C(=O)N2[C@H]1C(=O)O [AMP, ampicillin] | > 150 | > 150 | > 150 | > 150 |  |  |  |  |  |  |  |  |  |  |  |  | MIC [3]: > 150 µM
O=C(O)c1cn(C2CC2)c2cc(N3CCNCC3)c(F)cc2c1=O [CIPRO, ciprofloxacin] | 0.8 (≈ 0.265 µg/mL) |  |  | > 150 |  |  |  |  |  |  |  |  |  |  |  |  | 
CO/N=C(\C(=O)N[C@@H]1C(=O)N2C(C(=O)O)=C(CSc3nc(=O)c(=O)[nH]n3C)CS[C@H]12)c1csc(N)n1 [CRO, ceftriaxone] | > 150 | 137 (≈ 76 µg/mL) | 89 (≈ 49.4 µg/mL) | > 150 | 0.3 (≈ 0.166 µg/mL) | > 150 | 1.9 (≈ 1.05 µg/mL) | 0.2 (≈ 0.111 µg/mL) | > 150 | 45 (≈ 25 µg/mL) | > 150 | > 150 | > 150 | 1.9 (≈ 1.05 µg/mL) |  |  | 
CC(C)C[C@@H](NC(=O)[C@@H](CCCNC(=N)N)NC(=O)[C@H](N)CCCNC(=N)N)C(=O)N[C@H](C)C(=O)N[C@H](Cc1ccccc1)C(=O)N[C@H](C)C(=O)N[C@H](Cc1ccccc1)C(=O)N[C@H](CCCNC(=N)N)C(=O)N[C@H](CCCNC(=N)N)C(=O)N[C@H](Cc1c[nH]c2ccccc12)C(=O)N[C@H](C)C(=O)N[C@H](CCCNC(=N)N)C(=O)N[C@H](CCCNC(=N)N)C(N)=O [D-CONGA-FLIP] (H-[dR][dR][dL][dA][dF][dA][dF][dR][dR][dW][dA][dR][dR]-NH2; N-terminus and C-terminus assumed) |  |  |  |  |  |  |  |  |  |  |  |  |  |  | 143 | 0.05 | 
CC(C)C[C@@H](NC(=O)CNC(=O)[C@@H](CCCNC(=N)N)NC(=O)[C@@H](CCCNC(=N)N)NC(=O)[C@@H](C)NC(=O)[C@@H](Cc1c[nH]c2ccccc12)NC(=O)[C@@H](CCCNC(=N)N)NC(=O)[C@H](N)CCCNC(=N)N)C(=O)N[C@H](C)C(=O)N[C@H](Cc1ccccc1)C(=O)N[C@H](C)C(=O)N[C@H](Cc1ccccc1)C(=O)N[C@H](CCCNC(=N)N)C(=O)N[C@H](CCCNC(=N)N)C(N)=O [D-CONGA-G7] (H-[dR][dR][dW][dA][dR][dR]G[dL][dA][dF][dA][dF][dR][dR]-NH2; N-terminus and C-terminus assumed) |  |  |  |  |  |  |  |  |  |  |  |  |  |  | 235 | 0.07 | 
CC(C)C[C@@H](NC(=O)[C@@H](CCCCNC(=N)N)NC(=O)[C@@H](CCCCNC(=N)N)NC(=O)[C@@H](C)NC(=O)[C@@H](Cc1c[nH]c2ccccc12)NC(=O)[C@@H](CCCNC(=N)N)NC(=O)[C@H](N)CCCNC(=N)N)C(=O)N[C@H](C)C(=O)N[C@H](Cc1ccccc1)C(=O)N[C@H](C)C(=O)N[C@H](Cc1ccccc1)C(=O)N[C@H](CCCNC(=N)N)C(=O)N[C@H](CCCNC(=N)N)C(N)=O [D-CONGA-HomoR] (H-[dR][dR][dW][dA][d(hArg)][d(hArg)][dL][dA][dF][dA][dF][dR][dR]-NH2; N-terminus and C-terminus assumed) |  |  |  |  |  |  |  |  |  |  |  |  |  |  | 143 | 0.06 | 
CC(C)C[C@@H](NC(=O)[C@@H](CCCNC(=N)N)NC(=O)[C@@H](CCCNC(=N)N)NC(=O)[C@@H](Cc1c[nH]c2ccccc12)NC(=O)[C@@H](CCCNC(=N)N)NC(=O)[C@H](N)CCCNC(=N)N)C(=O)N[C@H](C)C(=O)N[C@H](Cc1ccccc1)C(=O)N[C@H](C)C(=O)N[C@H](Cc1ccccc1)C(=O)N[C@H](CCCNC(=N)N)C(=O)N[C@H](CCCNC(=N)N)C(N)=O [D-CONGA-ΔA4] (H-[dR][dR][dW][dR][dR][dL][dA][dF][dA][dF][dR][dR]-NH2; N-terminus and C-terminus assumed) |  |  |  |  |  |  |  |  |  |  |  |  |  |  | 143 | 0.02 | 
CC(C)C[C@@H](NC(=O)[C@@H](CCCNC(=N)N)NC(=O)[C@@H](CCCNC(=N)N)NC(=O)[C@@H](C)NC(=O)[C@@H](Cc1c[nH]c2ccccc12)NC(=O)[C@@H](CCCNC(=N)N)NC(=O)[C@H](N)CCCNC(=N)N)C(=O)N[C@H](C)C(=O)N[C@H](Cc1ccccc1)C(=O)N[C@H](Cc1ccccc1)C(=O)N[C@H](CCCNC(=N)N)C(=O)N[C@H](CCCNC(=N)N)C(N)=O [D-CONGA-ΔA10] (H-[dR][dR][dW][dA][dR][dR][dL][dA][dF][dF][dR][dR]-NH2; N-terminus and C-terminus assumed) |  |  |  |  |  |  |  |  |  |  |  |  |  |  | 257 | 0.02 | 
C[C@@H](O)[C@H]1C(=O)N2C(C(=O)O)=C(S[C@@H]3CN[C@H](C(=O)N(C)C)C3)[C@H](C)[C@H]12 [MEM, meropenem] | > 150 | 13.3 (≈ 5.1 µg/mL) | 4 (≈ 1.53 µg/mL) | > 150 | 0.2 (≈ 0.0767 µg/mL) | 0.2 (≈ 0.0767 µg/mL) | 0.4 (≈ 0.153 µg/mL) | 0.2 (≈ 0.0767 µg/mL) | > 150 | 108 (≈ 41.4 µg/mL) | > 150 | > 150 | > 150 | 0.3 (≈ 0.115 µg/mL) |  |  | 
NC[C@H]1O[C@H](O[C@H]2[C@H](O)[C@@H](O[C@H]3O[C@H](CO)[C@@H](O)[C@H](N)[C@H]3O)[C@H](N)C[C@@H]2N)[C@H](N)C[C@@H]1O [TOB, tobramycin] | > 150 | 4.2 (≈ 1.96 µg/mL) | 5.9 (≈ 2.76 µg/mL) | > 150 | 7.5 (≈ 3.51 µg/mL) | > 150 | 3.5 (≈ 1.64 µg/mL) | 6.9 (≈ 3.23 µg/mL) | > 150 | > 150 | > 150 | > 150 | > 150 | 4.6 (≈ 2.15 µg/mL) |  |  | 

From paper PMC10111420, “Optimization of Host Cell-Compatible, Antimicrobial Peptides Effective against Biofilms and Clinical Isolates of Drug-Resistant Bacteria” (ACS Infectious Diseases, 2023)
